System: test microbes
Test: Zone of Inhibition Test, antimicrobial efficacy overall
Type: cell-based
Settings: benzalkonium chloride in imbuement
From the text: Each fabric was placed in a commercially prepared imbuement containing benzalkonium chloride as the functional cationic additive (an antimicrobial agent).
All test results are the average of testing three batches of sample moist wipes. […] Therefore, all of these examples killed the test microbes when benzalkonium chloride was at the measured concentration in solution in the lotion (Table V). The difference (Example 10 versus Example 11) is when comparing the area around the circular piece of test wet wipe. As the benzalkonium chloride (from the imbuement) diffuses away from the test disk, the concentration of benzalkonium chloride decreases with increasing distance from the test disk. Each test microbe has a different minimum inhibitory concentration (MIC) for benzalkonium chloride to effectively kill that microbe. Therefore, if the concentration of benzalkonium chloride is above the MIC, it is observed as a visible zone where the growth of that test microbe has been inhibited. For this reason, some test microbes show no additional zone around the disk (code 0 in Table V), some show a partial zone around the disk (code 1), some show a small inhibition zone (code 2), while other test microbes show a larger inhibition zone (code 3). Therefore, comparisons among example wet wipes can only be made while comparing the same test microbe.

benzalkonium chloride
concentration remaining in solution shown to be sufficient for antibacterial efficacy: 0.029%
